Results published in patent US10519111B2, “UV absorbing compounds, compositions comprising same and uses thereof” (CORAL SUNSCREEN PTY LTD, priority 2013, dated 2019).
Several values for one entry are separate records, joined by “and”; a condition that tells them apart may be missing. Identical values can stand only once.

Assay: UV absorption properties (λmax, molar extinction coefficient ε, efficiency E 1%, 1 cm)
Assay type: physicochemical
Conditions: for ε (molar extinction coefficient): values in order of the λmax values; for shift / increase in λmax: versus base enaminoketone or alkanoyl counterparts

In the case of CC(=O)CC1=CC(C)(C)CCN1CC(C)C, the “E (1%, 1 cm)” value (Table 12) is reported as 675, the ε (Table 12) is reported as 16000 M⁻¹ cm⁻¹ and the λmax (Table 12, 2-substituted compounds) is reported as 314 nm.

With CC(C)CN1C=C(C(=O)CCC=Cc2ccc(COc3ccc(C(=O)CC(=O)c4ccc(C(C)(C)C)cc4)cc3)cc2)C(C)(C)CC1 (racemic) [Compound 10, 1-(4-(tert-butyl)phenyl)-3-(4-((4-(5-(1-isobutyl-4,4-dimethyl-1,4,5,6-tetrahydropyridin-3-yl)-5-oxopent-1-en-1-yl)benzyl)oxy)phenyl)propane-1,3-dione] the “UV λmax” value was 314 nm and 357 nm and the “ε (molar extinction coefficient)” value was 23250 M⁻¹ cm⁻¹ and 24050 M⁻¹ cm⁻¹.

For COc1ccc(C(=O)C(CCCCCC(=O)C2=CN(CC(C)C)CCC2(C)C)C(=O)c2ccc(C(C)(C)C)cc2)cc1 (centres unmarked) [Compound 5], the “UV λmax” value was 306 nm.

In the case of C=CCCC(=O)C1=CN(CC(C)C)CCC1(C)C [Compound 8, 1-(1-Isobutyl-4,4-dimethyl-1,4,5,6-tetrahydropyridin-3-yl)pent-4-en-1-one], the “UV λmax” value is reported as 308 nm and the “ε (molar extinction coefficient)” value is reported as 35000 M⁻¹ cm⁻¹.

For CC(C)(C)c1ccc(C(=O)CC(=O)c2ccc(OCc3ccc(Br)cc3)cc2)cc1 [Compound 9, 1-(4-((4-bromobenzyl)oxy)phenyl)-3-(4-(tert-butyl)phenyl)propane-1,3-dione], the “UV λmax” value was 357 nm and the “ε (molar extinction coefficient)” value was 35500 M⁻¹ cm⁻¹.

For CC(C)CN1C=C(C(=O)c2ccc(C(C)(C)C)cc2)C(C)(C)CC1 [Compound 11, (4-(tert-butyl)phenyl)(1-isobutyl-4,4-dimethyl-1,4,5,6-tetrahydropyridin-3-yl)methanone], the “UV λmax” value was 317 nm, the “ε (molar extinction coefficient)” value was 19000 M⁻¹ cm⁻¹ and the “shift / increase in λmax” value was “approximately 11 nm”.

For COc1ccc(C(=O)C2=CN(CC(C)C)CCC2(C)C)cc1 [Compound 12, (1-isobutyl-4,4-dimethyl-1,4,5,6-tetrahydropyridin-3-yl) (4-methoxyphenyl)methanone], the “UV λmax” value was 319 nm and the “shift / increase in λmax” value was “approximately 11 nm”.

With COc1ccc(C(=O)CC(=O)C2=CN(CC(C)C)CCC2(C)C)cc1 [Compound 13, 1-(1-isobutyl-4,4-dimethyl-1,4,5,6-tetrahydropyridin-3-yl)-3-(4-methoxyphenyl)propane-1,3-dione] the “UV λmax” value was 293 nm and 396 nm and the “ε (molar extinction coefficient)” value was 14250 M⁻¹ cm⁻¹ and 11150 M⁻¹ cm⁻¹.

For CC(C)CN1C=C(C(=O)c2ccc(N(C)C)cc2)C(C)(C)CC1 [Compound 15, (4-(dimethylamino)phenyl)(1-isobutyl-4,4-dimethyl-1,4,5,6-tetrahydropyridin-3-yl)methanone], the “UV λmax” value was 336 nm and the “ε (molar extinction coefficient)” value was 17000 M⁻¹ cm⁻¹.

With CC(C)CN1C=C(C(=O)c2ccc(Br)cc2)C(C)(C)CC1 [Compound 16, (4-bromophenyl)(1-isobutyl-4,4-dimethyl-1,4,5,6-tetrahydropyridin-3-yl)methanone] the “UV λmax” value was 318 nm and the “ε (molar extinction coefficient)” value was 22500 M⁻¹ cm⁻¹.

With CC(C)CN1C=C(C(=O)c2ccc3c(c2)CCO3)C(C)(C)CC1 [Compound 18, (2,3-dihydrobenzofuran-5-yl)(1-isobutyl-4,4-dimethyl-1,4,5,6-tetrahydropyridin-3-yl)methanone] the “UV λmax” value was 320 nm and the “ε (molar extinction coefficient)” value was 22000 M⁻¹ cm⁻¹.

With CC(C)CN1C=C(C(=O)c2ccc(-c3ccccc3)cc2)C(C)(C)CC1 [Compound 19, [1,1′-biphenyl]-4-yl(1-isobutyl-4,4-dimethyl-1,4,5,6-tetrahydropyridin-3-yl)methanone] the “UV λmax” value was 320 nm and the “ε (molar extinction coefficient)” value was 18000 M⁻¹ cm⁻¹.

In the case of CC(C)CN1C=C(C(=O)c2ccccc2)C(C)(C)CC1 [Compound 20, (1-isobutyl-4,4-dimethyl-1,4,5,6-tetrahydropyridin-3-yl)(phenyl)methanone], the “UV λmax” value is reported as 316 nm and the “ε (molar extinction coefficient)” value is reported as 19000 M⁻¹ cm⁻¹.

In the case of CC(C)CN1C=C(C(=O)c2ccc(C(=O)C3=CN(CC(C)C)CCC3(C)C)cc2)C(C)(C)CC1 [Compound 21, 1,4-phenylenebis ((1-isobutyl-4,4-dimethyl-1,4,5,6-tetrahydropyridin-3-yl)methanone)], the “UV λmax” value is reported as 320 nm and the “ε (molar extinction coefficient)” value is reported as 20000 M⁻¹ cm⁻¹.

With CC(C)CN1C=C(C(=O)c2cc(C(=O)C3=CN(CC(C)C)CCC3(C)C)cc(C(=O)C3=CN(CC(C)C)CCC3(C)C)c2)C(C)(C)CC1 [Compound 22, benzene-1,3,5-triyltris ((1-isobutyl-4,4-dimethyl-1,4,5,6-tetrahydropyridin-3-yl)methanone)] the “UV λmax” value was 316 nm and the “ε (molar extinction coefficient)” value was 33000 M⁻¹ cm⁻¹.

For CC(C)CN1C=C(C(=O)c2ccc(C(=O)c3ccccc3)cc2)C(C)(C)CC1 [Compound 23, (4-benzoylphenyl)(1-isobutyl-4,4-dimethyl-1,4,5,6-tetrahydropyridin-3-yl)methanone], the “UV λmax” value was 295 nm and the “ε (molar extinction coefficient)” value was 7500 M⁻¹ cm⁻¹.

For COc1ccc(C(=O)C2=CN(CC(C)C)CCC2(C)C)c(OC)c1 [Compound 24, 2,4-dimethoxyphenyl(1-isobutyl-4,4-dimethyl-1,4,5,6-tetrahydropyridin-3-yl)methanone], the “UV λmax” value was 313 nm and the “ε (molar extinction coefficient)” value was 9500 M⁻¹ cm⁻¹.

For CC(C)=CC(=O)C1=CN(CC(C)C)CCC1(C)C [Compound 26, 1-(1-isobutyl-4,4-dimethyl-1,4,5,6-tetrahydropyridin-3-yl)-3-methylbut-2-en-1-one], the “UV λmax” value was 310 nm and 314 nm and the “ε (molar extinction coefficient)” value was 19000 M⁻¹ cm⁻¹.

For C=C(C)CC(=O)C1=CN(CC(C)C)CCC1(C)C [Compound 27, 1-(1-isobutyl-4,4-dimethyl-1,4,5,6-tetrahydropyridin-3-yl)-3-methylbut-3-en-1-one], the “UV λmax” value was 306 nm and the “ε (molar extinction coefficient)” value was 14500 M⁻¹ cm⁻¹.

For C=C/C=C/CC(=O)C1=CN(CC(C)C)CCC1(C)C [Compound 28, (E)-1-(1-isobutyl-4,4-dimethyl-1,4,5,6-tetrahydropyridin-3-yl)hexa-3,5-dien-1-one], the “UV λmax” value was 311 nm.

With C=CCC(=O)C1=CN(CC(C)C)CCC1(C)C [Compound 29, 1-(1-isobutyl-4,4-dimethyl-1,4,5,6-tetrahydropyridin-3-yl)but-3-en-1-one] the “UV λmax” value was 310 nm.

For CC(C)CN1C=C(C(=O)/C=C/c2ccccc2)C(C)(C)CC1 [Compound 31, (E)-1-(1-Isobutyl-4,4-dimethyl-1,4,5,6-tetrahydropyridin-3-yl)-3-phenylprop-2-en-1-one], the “UV λmax” value was 360 nm and the “ε (molar extinction coefficient)” value was 16000 M⁻¹ cm⁻¹.

For C=CC(=O)C1=CN(CC(C)C)CCC1(C)C [Compound 32, 1-(1-Isobutyl-4,4-dimethyl-1,4,5,6-tetrahydropyridin-3-yl)prop-2-en-1-one], the “UV λmax” value was 331 nm and the “ε (molar extinction coefficient)” value was 20500 M⁻¹ cm⁻¹.

For CC(C)CN1C=C(C(=O)/C=C/c2ccc(C(F)(F)F)cc2)C(C)(C)CC1 [Compound 33, (E)-1-(1-Isobutyl-4,4-dimethyl-1,4,5,6-tetrahydropyridin-3-yl)-3-(4-(trifluoromethyl)phenyl)prop-2-en-1-one], the “UV λmax” value was 369 nm and the “ε (molar extinction coefficient)” value was 17000 M⁻¹ cm⁻¹.

With COc1ccc(/C=C/C(=O)C2=CN(CC(C)C)CCC2(C)C)cc1 [Compound 34, (E)-1-(1-isobutyl-4,4-dimethyl-1,4,5,6-tetrahydropyridin-3-yl)-3-(4-methoxyphenyl)prop-2-en-1-one] the “UV λmax” value was 364 nm and the “ε (molar extinction coefficient)” value was 16150 M⁻¹ cm⁻¹.

In the case of CC(C)CN1C=C(C(=O)/C=C/C=Cc2ccccc2)C(C)(C)CC1 [Compound 35, (2E, 4E/Z)-1-(1-isobutyl-4,4-dimethyl-1,4,5,6-tetrahydropyridin-3-yl)-5-phenylpenta-2,4-dien-1-one], the “UV λmax” value is reported as 318 nm and 370 nm and the “ε (molar extinction coefficient)” value is reported as 14800 M⁻¹ cm⁻¹ and 13200 M⁻¹ cm⁻¹.

For C=C(C)C(=O)C1=CN(CC(C)C)CCC1(C)C [Compound 36, 1-(1-Isobutyl-4,4-dimethyl-1,4,5,6-tetrahydropyridin-3-yl)methylprop-2-en-1-one], the “UV λmax” value was 310 nm and the “ε (molar extinction coefficient)” value was 18950 M⁻¹ cm⁻¹.

In the case of C=C/C=C/C(=O)C1=CN(CC(C)C)CCC1(C)C [Compound 38, (2E/Z) 1-(1-isobutyl-4,4-dimethyl-1,4,5,6-tetrahydropyridin-3-yl)penta-2,4-dien-1-one], the “UV λmax” value is reported as 352 nm and the “ε (molar extinction coefficient)” value is reported as 18000 M⁻¹ cm⁻¹.

In the case of CC(C)CN1C=C(C(=O)C(C#N)=C(c2ccccc2)c2ccccc2)C(C)(C)CC1 [Compound 39], the “UV λmax” value is reported as 297 nm and 317 nm and the “ε (molar extinction coefficient)” value is reported as 15750 M⁻¹ cm⁻¹ and 16150 M⁻¹ cm⁻¹.

For CC1(C)C=CN(c2ccccc2)CC1 [Compound 46, 4,4-dimethyl-1-phenyl-1,2,3,4-tetrahydropyridine], the “UV λmax” value was 278 nm and the “ε (molar extinction coefficient)” value was 22550 M⁻¹ cm⁻¹.

With CCC(=O)C1=CN(c2ccccc2)CCC1(C)C [Compound 47, 1-(4,4-dimethyl-1-phenyl-1,4,5,6-tetrahydropyridin-3-yl)propan-1-one] the “UV λmax” value was 321 nm and the “ε (molar extinction coefficient)” value was 23000 M⁻¹ cm⁻¹.

With C=CC(=O)C1=CN(c2ccccc2)CCC1(C)C [Compound 48, 1-(4,4-dimethyl-1-phenyl-1,4,5,6-tetrahydropyridin-3-yl)prop-2-en-1-one] the “UV λmax” value was 346 nm and the “ε (molar extinction coefficient)” value was 21000 M⁻¹ cm⁻¹.

With CC1(C)CCN(c2ccccc2)C=C1C(=O)c1ccc(Br)cc1 [Compound 49, (4-bromophenyl)(1-(phenyl)-4,4-dimethyl-1,4,5,6-tetrahydropyridin-3-yl)methanone] the “UV λmax” value was 338 nm and the “ε (molar extinction coefficient)” value was 23300 M⁻¹ cm⁻¹.

For CC1(C)C=CN(c2ccccc2)C=C1 [Compound 50, 4,4-dimethyl-1-phenyl-1,4-dihydropyridine], the “UV λmax” value was 285 nm and the “ε (molar extinction coefficient)” value was 16000 M⁻¹ cm⁻¹.

For COc1ccc(N2C=CC(C)(C)CC2)cc1 [Compound 51, 1-(4-methoxyphenyl)-4,4-dimethyl-1,2,3,4-tetrahydropyridine], the “UV λmax” value was 278 nm and the “ε (molar extinction coefficient)” value was 22550 M⁻¹ cm⁻¹.

For CCC(=O)C1=CN(c2ccc(OC)cc2)CCC1(C)C [Compound 52, 1-(1-(4-methoxyphenyl)-4,4-dimethyl-1,4,5,6-tetrahydropyridin-3-yl)propan-1-one], the “UV λmax” value was 328 nm and the “ε (molar extinction coefficient)” value was 23500 M⁻¹ cm⁻¹.
